Measurements from patent US4731451A, “N-((2-oxo-3(2H)benzothiazolyl)methyl)-2-chloroacetanilides” (Monsanto Company, priority 1980, dated 1988).

Columns and labels:
Format in all cases: in vivo
Lambsquarters [1] = assay: Pre-emergent herbicidal activity (Table III)
Outline: (§1)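 Topsoil is compacted in pans and seeded. Cover soil is blended with a known quantity of active ingredient and spread over the seeds. Pans go to a greenhouse bench with bottom watering. After approximately 2-3 weeks, injury is rated on a fixed scale.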

Barnyardgrass [2] = assay: Pre-emergent herbicidal activity (Table III)
Outline: as §1

Smartweed [3] = assay: Pre-emergent herbicidal activity (Table III)
Outline: as §1

Morningglory [4] = assay: Pre-emergent herbicidal activity (Table III)
Outline: as §1

Sorghum = assay: Pre-emergent herbicidal activity (Table III)
Outline: as §1

Rice = assay: Pre-emergent herbicidal activity (Table III)
Outline: as §1

Sugarbeet = assay: Pre-emergent herbicidal activity (Table III)
Outline: as §1

Crabgrass = assay: Pre-emergent herbicidal activity (Table III)
Outline: as §1

Cocklebur [5] = assay: Pre-emergent herbicidal activity (Table III)
Outline: as §1

Downy Brome [6] = assay: Pre-emergent herbicidal activity (Table III)
Outline: as §1

Soybean = assay: Pre-emergent herbicidal activity (Table III)
Outline: as §1

Hemp Sesbania = assay: Pre-emergent herbicidal activity (Table III)
Outline: as §1

Wild Buckwheat = assay: Pre-emergent herbicidal activity (Table III)
Outline: as §1

Panicum = assay: Pre-emergent herbicidal activity (Table III)
Outline: as §1

Velvetleaf [7] = assay: Pre-emergent herbicidal activity (Table III)
Outline: as §1

Wheat = assay: Pre-emergent herbicidal activity (Table III)
Outline: as §1

Lambsquarters [8] = assay: Pre-emergent herbicidal activity (Table II); details: 2-3 weeks
Outline: (§2)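 Pans of top soil were seeded, then topped with soil thoroughly mixed with the test compound; plants grew in the greenhouse with watering from below. After approximately 2-3 weeks, injury to each species was assessed.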

Barnyardgrass [9] = assay: Pre-emergent herbicidal activity (Table II); details: 2-3 weeks
Outline: as §2

Smartweed [10] = assay: Pre-emergent herbicidal activity (Table II); details: 2-3 weeks
Outline: as §2

Morningglory [11] = assay: Pre-emergent herbicidal activity (Table II); details: 2-3 weeks
Outline: as §2

Yellow Nutsedge = assay: Pre-emergent herbicidal activity (Table II); details: 2-3 weeks
Outline: as §2

Johnsongrass = assay: Pre-emergent herbicidal activity (Table II); details: 2-3 weeks
Outline: as §2

Quackgrass = assay: Pre-emergent herbicidal activity (Table II); details: 2-3 weeks
Outline: as §2

Cocklebur [12] = assay: Pre-emergent herbicidal activity (Table II); details: 2-3 weeks
Outline: as §2

Downy Brome [13] = assay: Pre-emergent herbicidal activity (Table II); details: 2-3 weeks
Outline: as §2

Canada Thistle = assay: Pre-emergent herbicidal activity (Table II); details: 2-3 weeks
Outline: as §2

Velvetleaf [14] = assay: Pre-emergent herbicidal activity (Table II); details: 2-3 weeks
Outline: as §2
Also: ranges in brackets are in %.

`CC1=C(N(Cn2c(=O)sc3ccc(Cl)cc32)C(=O)CCl)C(C)CCC1` (stereo not drawn) [Example 6, N--[(5-chloro-2-oxo-3(2H)--benzothiazolyl)methyl]-N--(2,6-dimethyl-1-cyclohexen-1-yl)-2-chloroacetamide] was tested, and the Herbicidal rating (Lambsquarters [1]; 1.12 kg/ha) was 3 (75-100), the Herbicidal rating (Lambsquarters [1]; 5.6 kg/ha) was 1 (25-49) and the Herbicidal rating (Barnyardgrass [2]; 1.12 kg/ha) was 0 (0-24). The Herbicidal rating (Barnyardgrass [2]; 5.6 kg/ha) was 1 (25-49), the Herbicidal rating (Smartweed [3]; 1.12 kg/ha) was 2 (50-74) and the Herbicidal rating (Smartweed [3]; 5.6 kg/ha) was 1 (25-49). The Herbicidal rating (Morningglory [4]; 1.12 kg/ha) was 0 (0-24), the Herbicidal rating (Morningglory [4]; 5.6 kg/ha) was 0 (0-24) and the Herbicidal rating (Sorghum; 1.12 kg/ha) was 0 (0-24). The Herbicidal rating (Sorghum; 5.6 kg/ha) was 0 (0-24), the Herbicidal rating (Rice; 1.12 kg/ha) was 1 (25-49) and the Herbicidal rating (Rice; 5.6 kg/ha) was 0 (0-24). For the same molecule, the Herbicidal rating (Sugarbeet; 1.12 kg/ha) was 1 (25-49), the Herbicidal rating (Sugarbeet; 5.6 kg/ha) was 1 (25-49) and the Herbicidal rating (Crabgrass; 1.12 kg/ha) was 2 (50-74). For the same molecule, the Herbicidal rating (Crabgrass; 5.6 kg/ha) was 3 (75-100), the Herbicidal rating (Cocklebur [5]; 1.12 kg/ha) was 0 (0-24) and the Herbicidal rating (Cocklebur [5]; 5.6 kg/ha) was 0 (0-24). The Herbicidal rating (Downy Brome [6]; 1.12 kg/ha) was 0 (0-24), the Herbicidal rating (Downy Brome [6]; 5.6 kg/ha) was 0 (0-24) and the Herbicidal rating (Soybean; 1.12 kg/ha) was 0 (0-24). For the same molecule, the Herbicidal rating (Soybean; 5.6 kg/ha) was 0 (0-24), the Herbicidal rating (Hemp Sesbania; 1.12 kg/ha) was 3 (75-100) and the Herbicidal rating (Hemp Sesbania; 5.6 kg/ha) was 3 (75-100). For the same molecule, the Herbicidal rating (Wild Buckwheat; 1.12 kg/ha) was 0 (0-24), the Herbicidal rating (Wild Buckwheat; 5.6 kg/ha) was 0 (0-24) and the Herbicidal rating (Panicum; 1.12 kg/ha) was 0 (0-24). For the same molecule, the Herbicidal rating (Panicum; 5.6 kg/ha) was 0 (0-24), the Herbicidal rating (Velvetleaf [7]; 1.12 kg/ha) was 0 (0-24) and the Herbicidal rating (Velvetleaf [7]; 5.6 kg/ha) was 0 (0-24). The Herbicidal rating (Wheat; 1.12 kg/ha) was 0 (0-24), the Herbicidal rating (Wheat; 5.6 kg/ha) was 0 (0-24) and the Herbicidal rating (Lambsquarters [8]; 5.6 kg/ha) was 0 (0-24). For the same molecule, the Herbicidal rating (Lambsquarters [8]; 11.2 kg/ha) was 3 (75-100), the Herbicidal rating (Barnyardgrass [9]; 5.6 kg/ha) was 1 (25-49) and the Herbicidal rating (Barnyardgrass [9]; 11.2 kg/ha) was 3 (75-100). For the same molecule, the Herbicidal rating (Smartweed [10]; 5.6 kg/ha) was 0 (0-24), the Herbicidal rating (Smartweed [10]; 11.2 kg/ha) was 0 (0-24) and the Herbicidal rating (Morningglory [11]; 5.6 kg/ha) was 0 (0-24). The Herbicidal rating (Morningglory [11]; 11.2 kg/ha) was 0 (0-24), the Herbicidal rating (Yellow Nutsedge; 5.6 kg/ha) was 0 (0-24) and the Herbicidal rating (Yellow Nutsedge; 11.2 kg/ha) was 0 (0-24). The Herbicidal rating (Johnsongrass; 5.6 kg/ha) was 0 (0-24), the Herbicidal rating (Johnsongrass; 11.2 kg/ha) was 0 (0-24) and the Herbicidal rating (Quackgrass; 5.6 kg/ha) was 0 (0-24). The Herbicidal rating (Quackgrass; 11.2 kg/ha) was 1 (25-49), the Herbicidal rating (Cocklebur [12]; 5.6 kg/ha) was 0 (0-24) and the Herbicidal rating (Cocklebur [12]; 11.2 kg/ha) was 0 (0-24). For the same molecule, the Herbicidal rating (Downy Brome [13]; 5.6 kg/ha) was 0 (0-24), the Herbicidal rating (Downy Brome [13]; 11.2 kg/ha) was 0 (0-24) and the Herbicidal rating (Canada Thistle; 5.6 kg/ha) was 0 (0-24). For the same molecule, the Herbicidal rating (Canada Thistle; 11.2 kg/ha) was 1 (25-49), the Herbicidal rating (Velvetleaf [14]; 5.6 kg/ha) was 0 (0-24) and the Herbicidal rating (Velvetleaf [14]; 11.2 kg/ha) was 0 (0-24).
